{"source": "patent US4874759A", "about": "“5-Hydroxyindole-3-carboxylic acid amide compounds, pharmaceutical compositions and use” (Yoshitomi Pharmaceutical Industries, Ltd., priority 1987, dated 1989)", "key": {"[1]": {"test": "Acute toxicity (mortality) in mice", "format": "in vivo, ddY strain mice", "details": "ddY mice, 300 mg/kg"}, "[2]": {"test": "Diuretic action (oral administration to rats; urine volume and electrolytes excreted within 6 hours)", "format": "in vivo, Male Wistar strain rats", "details": "rat, p.o., average value ± average error", "protocol": "Male Wistar strain rats (each weighing 180 to 220 g, six animals per group) were subjected to the experiment after they had been fasted for 18 hours and further deprived of food and water for 3 hours.\nAfter the rats were orally administered with test compounds suspended in a 0.9% saline solution at the dose of 25 ml/kg, each of them was put in a metabolic cage. The urine excreted within 6 hours after the administration was collected, and the urine volume and sodium (Na), potassium (K) and chlorine (Cl) ions were assayed. The urine sodium and potassium ions were measured by the flame spectrophotometry and the chlorine ions were measured by the chloride counter.\nThe test compounds were the compounds described below in Examples and the following (as applies to the following Pharmacological Experimental Examples), and the compounds numbers respectively correspond to the compound numbers described at the end of the compound names recited in Examples and the following. In the table, each of the numerals represents average value±average error and the mark * designates that the value is statistically significant as compared with the control by P<0.05 and mark ** designates that the value is statistically signficant by P<0.01."}, "5-lipoxygenase": {"target": "T1, 5-lipoxygenase (Cavia porcellus, UniProt A0A286X958)", "T1 construct": "supernatant fraction of intraperitoneal polymorph leukocyte of guinea pigs was prepared; from tissue; host or cells: peritoneal polymorphonuclear leukocytes of male guinea pigs (casein-elicited), 105,000×g supernatant", "T1 sequence (A0A286X958 1-674)": "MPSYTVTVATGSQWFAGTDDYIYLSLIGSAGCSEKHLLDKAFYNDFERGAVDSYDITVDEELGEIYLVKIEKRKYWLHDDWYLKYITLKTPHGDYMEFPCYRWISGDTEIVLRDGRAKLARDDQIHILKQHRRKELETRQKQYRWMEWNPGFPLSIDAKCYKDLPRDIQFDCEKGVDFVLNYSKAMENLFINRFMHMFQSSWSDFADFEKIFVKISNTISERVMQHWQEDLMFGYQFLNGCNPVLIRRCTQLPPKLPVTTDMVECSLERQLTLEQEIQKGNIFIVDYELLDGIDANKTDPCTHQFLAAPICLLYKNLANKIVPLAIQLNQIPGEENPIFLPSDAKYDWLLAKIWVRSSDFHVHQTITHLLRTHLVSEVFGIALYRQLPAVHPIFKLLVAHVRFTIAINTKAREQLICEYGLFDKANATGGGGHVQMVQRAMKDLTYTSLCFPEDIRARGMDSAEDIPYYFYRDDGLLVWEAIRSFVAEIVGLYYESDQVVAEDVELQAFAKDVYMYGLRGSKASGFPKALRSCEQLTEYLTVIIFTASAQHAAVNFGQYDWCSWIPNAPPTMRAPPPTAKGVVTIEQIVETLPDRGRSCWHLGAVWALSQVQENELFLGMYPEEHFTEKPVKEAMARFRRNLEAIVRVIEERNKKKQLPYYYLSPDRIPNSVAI", "test": "5-Lipoxygenase-inhibitory action (5-HETE production from arachidonic acid)", "format": "biochemical", "details": "3.4 μM [1-14C] arachidonic acid, 105,000×g supernatant of guinea pig polymorph leukocyte, 30° C., 3 minutes; read-out: 50% inhibitory concentration against the production of 5-HETE", "protocol": "In accordance with the method of Ochi et al (J. Biol. Chem., vol. 258, pp. 5754-5758 (1983)), the 105,000×g supernatant fraction of intraperitoneal polymorph leukocyte of guinea pigs was prepared, and the capability of producing 5-hydroxyeicosatetraenoic acid (5-HETE) from arachidonic acid was assayed.\nMale guinea pigs weighing about 500 g were intraperitoneally administered with 1/10 volume (at the dose of 10 ml/100 g body weight) of a 2% casein solution and operated in the abdomen 16-18 hours after the administration. The intraperitoneal effusion was taken and the insdie of the abdomen was washed with a saline solution containing 10 mM phosphate buffer solution (pH 7.4) twice. The obtained effusion and the washing solution were collected and centrifuged at 150×g for five minutes. A 0.2% saline solution was added to the sediment, followed by hypotonic treatment to subject the mixed erythrocyte to hemolysis. After a 1.6% saline solution was added thereto to make the mixture isotonic, it was centrifuged in the same manner and suspended in 50 mM Hepes buffer solution (pH 8.0). The suspension was treated with supersonic waves (by Branson sonifier, model 185) and centrifuged at 10,000×g for 10 minutes. The supernatant was further centrifuged at 105,000×g for 60 minutes. The supernatant thus obtained was taken as the 5-lipoxygenase fraction which was freezed to -70° C. to be preserved. […]"}, "left coronary artery": {"system": "left coronary artery", "test": "Action on coronary blood flow (perfused left coronary artery of anesthetized dog)", "format": "in vivo, mongrel adult dog", "details": "intracoronary, dose increasing coronary blood flow to 50% of the effect of 3 μg Nifedipine", "protocol": "A mongrel adult dog was anesthetized by intravenous administration with sodium pentobarbital at the dose of 30 mg/kg body weight. In accordance with the method by Yago et al [Folia pharmacologica japonica, vol. 57, p. 380 (1961)], the left coronary artery was perfused and the volume of blood flow was measured. The test compounds were administered in the coronary artery at a dosage of 10 to 30 μl. The effects of the test compounds on the coronary blood flow were represented by ED50 (μg) which was determined as the dose required for increasing the coronary blood flow to the level of 50% of the effect which was attained by administering the coronary artery 3 μg of Nifedipine [dimethyl 2,6-dimethyl-4-(2-nitrophenyl)-1,4-dihydropyridine-3,5-dicarboxylate]."}, "right vertebrartery": {"system": "right vertebrartery", "test": "Action on vertebrarterial blood flow (perfused right vertebral artery of anesthetized dog)", "format": "in vivo, mongrel adult dog", "details": "into vertebral artery, maximum increase by 100 μg papaverine hydrochloride = 100%", "protocol": "After mongrel adult dog was anesthetized by intravenous administration of sodium pentobarbital at the dose of 25 mg/kg body weight, the right vertebrartery was perfused and the volume of blood flow was measured. The test compounds were administered in the vertebral artery.\nWith the maximum increase rate in the blood flow being taken as 100% when 100 μg of papaverine hydrochloride (1-[(3,4-dimethoxyphenyl)methyl]-6,7-dimethoxyisoquinoline hydrochloride) was administered in the vertebral artery, the effects of the test compounds were represented by ED100 (μg) which denotes the dose required for attaining an increased rate of the blood flow of 100%."}}, "data": [{"smiles": "Cc1[nH]c2cc(Br)c(O)c(CN3CCCCC3)c2c1C(=O)N1CCOCC1", "note": "[Compound (2), 4-(6-Bromo-5-hydroxy-2-methyl-4-piperidinomethyl-1H-indol-3-ylcarbonyl)morpholine]", "values": [{"measurement": "Death of mice", "setting": "[1]; intraperitoneal", "result": "none of them was observed to die"}, {"measurement": "Death of mice", "setting": "[1]; oral", "result": "none of them was observed to die"}, {"measurement": "Excretion of Electrolyte, Cl", "setting": "[2]; 3.0 mg/kg", "result": "349 ± 27 μeq/100 g body weight/ 6 hrs."}, {"measurement": "Excretion of Electrolyte, K", "setting": "[2]; 3.0 mg/kg", "result": "95 ± 7 μeq/100 g body weight/ 6 hrs."}, {"measurement": "Excretion of Electrolyte, Na", "setting": "[2]; 3.0 mg/kg", "result": "284 ± 30 μeq/100 g body weight/ 6 hrs."}, {"measurement": "Excretion of Electrolyte, Na/K", "setting": "[2]; 3.0 mg/kg", "result": "3.1 ± 0.3"}, {"measurement": "Urine Volume", "setting": "[2]; 3.0 mg/kg", "result": "2.0 ± 0.2 ml/100 g body weight/ 6 hrs."}]}, {"smiles": "CCCCN(CCCC)C(=O)c1c(C)n(CCc2ccccc2)c2cc(C(=O)CC)c(O)c(CN3CCCCC3)c12", "note": "[Compound (4), N,N-Dibutyl-5-hydroxy-2-methyl-1-(2-phenylethyl)-4-piperidinomethyl-6-propionylindole-3-carboxamide]", "values": [{"measurement": "IC50", "setting": "5-lipoxygenase", "result": 20, "unit": "µM"}, {"measurement": "Coronary vasodilating action, ED50", "setting": "left coronary artery", "result": 12, "unit": "µg"}, {"measurement": "Vertebrarterial vasodilating action, ED100", "setting": "right vertebrartery", "result": 63, "unit": "µg"}]}, {"smiles": "CCCCCCn1c(C)c(C(=O)N(CCCC)CCCC)c2c(CN3CCCCC3)c(O)c(C(=O)CC)cc21", "note": "[Compound (6), N,N-dibutyl-1-hexyl-5-hydroxy-2-methyl-4-piperidinomethyl-6-propionylindole-3-carboxamide]", "values": [{"measurement": "Coronary vasodilating action, ED50", "setting": "left coronary artery", "result": 10, "unit": "µg"}, {"measurement": "Vertebrarterial vasodilating action, ED100", "setting": "right vertebrartery", "result": 48, "unit": "µg"}]}, {"smiles": "CCCCNC(=O)c1c(C)n(CCCC)c2ccc(O)c(CN3CCCCC3)c12", "note": "[Compound (8), 1,N-Dibutyl-5-hydroxy-2-methyl-4-piperidinomethylindole-3-carboxamide]", "values": [{"measurement": "Coronary vasodilating action, ED50", "setting": "left coronary artery", "result": 63, "unit": "µg"}, {"measurement": "Vertebrarterial vasodilating action, ED100", "setting": "right vertebrartery", "result": 58, "unit": "µg"}]}, {"smiles": "CCCCNC(=O)c1c(C)[nH]c2cc(Br)c(O)c(CN3CCCCC3)c12", "note": "[Compound (10), 6-Bromo-N-butyl-5-hydroxy-2-methyl-4-piperidinomethylindole-3-carboxamide]", "values": [{"measurement": "Excretion of Electrolyte, Cl", "setting": "[2]; 10.0 mg/kg", "result": "379 ± 35 μeq/100 g body weight/ 6 hrs."}, {"measurement": "Excretion of Electrolyte, K", "setting": "[2]; 10.0 mg/kg", "result": "73 ± 8 μeq/100 g body weight/ 6 hrs."}, {"measurement": "Excretion of Electrolyte, Na", "setting": "[2]; 10.0 mg/kg", "result": "402 ± 43 μeq/100 g body weight/ 6 hrs."}, {"measurement": "Excretion of Electrolyte, Na/K", "setting": "[2]; 10.0 mg/kg", "result": "5.8 ± 0.7"}, {"measurement": "Urine Volume", "setting": "[2]; 10.0 mg/kg", "result": "2.6 ± 0.3 ml/100 g body weight/ 6 hrs."}]}, {"smiles": "CCCCN(CCCC)C(=O)c1c(C)[nH]c2ccc(O)c(CN3CCCCC3)c12", "note": "[Compound (17), N,N-Dibutyl-5-hydroxy-2-methyl-4-piperidinomethylindole-3-carboxamide]", "values": [{"measurement": "Excretion of Electrolyte, Cl", "setting": "[2]; 10.0 mg/kg", "result": "358 ± 25 μeq/100 g body weight/ 6 hrs."}, {"measurement": "Excretion of Electrolyte, K", "setting": "[2]; 10.0 mg/kg", "result": "64 ± 4 μeq/100 g body weight/ 6 hrs."}, {"measurement": "Excretion of Electrolyte, Na", "setting": "[2]; 10.0 mg/kg", "result": "346 ± 28 μeq/100 g body weight/ 6 hrs."}, {"measurement": "Excretion of Electrolyte, Na/K", "setting": "[2]; 10.0 mg/kg", "result": "5.7 ± 0.9"}, {"measurement": "Urine Volume", "setting": "[2]; 10.0 mg/kg", "result": "2.4 ± 0.2 ml/100 g body weight/ 6 hrs."}]}, {"smiles": "CCCCN(CCCC)C(=O)c1c(C)n(-c2ccccc2)c2cc(C(=O)CC)c(O)c(CN3CCCCC3)c12", "note": "[Compound (25), N,N-Dibutyl-5-hydroxy-2-methyl-1-phenyl-4-piperidinomethyl-6-propionylindole-3-carboxamide]", "values": [{"measurement": "IC50", "setting": "5-lipoxygenase", "result": 19, "unit": "µM"}, {"measurement": "Coronary vasodilating action, ED50", "setting": "left coronary artery", "result": 22, "unit": "µg"}, {"measurement": "Vertebrarterial vasodilating action, ED100", "setting": "right vertebrartery", "result": 76, "unit": "µg"}]}]}
